Source: publication PMC7955127, “Preclinical small molecule WEHI-7326 overcomes drug resistance and elicits response in patient-derived xenograft models of human treatment-refractory tumors” (Cell Death & Disease, 2021)
Blank lines part the entries; values can stand above or below the molecule they belong to.

Assays:
24 T TNBC PDX = assay: TNBC PDX model 24T; format: in vivo, NOD-SCID-IL2Rγc–/– mice; settings: 24 T PDX; docetaxel 10 mg/kg i.p. once; WEHI-7326 20 mg/kg i.v. biweekly
Experimental: (§1) Cohorts of about 30 female mice were seeded with thawed single cell suspensions of early passage human breast tumors (passage 2 or 3). Briefly, 150,000–250,000 cells were resuspended in 10 µl of transplantation buffer (50% fetal calf serum, 10% of a 0.04% trypan blue solution and 40% PBS) and growth-factor-reduced Matrigel [BD] at a ratio of 3:1, and injected into the cleared mammary fat pads of 3- or 4-week-old NOD-SCID-IL2Rγc–/– female mice. Mice were monitored for tumor development three times weekly and tumor size measured using digital Vernier calipers. Tumor volume was estimated by measuring the minimum and maximum tumor diameters using the formula: (minimum diameter)^2 x (maximum diameter)/2. Once tumors arose, mice were randomized into treatment arms. Treatment was initiated when the tumor volume reached 80–120 mm^3. Randomization and tumor measurements were managed using the Study Director software (v 3.0, studylog). Mice were sacrificed at the first measurement where tumor volume exceeded 600 mm^3, or if their health deteriorated for reasons other than disease progression or drug toxicity (censored event).
(§2) Mice were treated with either docetaxel (10 mg/kg; i.p.; once), cisplatin (4 mg/kg; i.p.; once) or WEHI-7326 (20 mg/kg; twice a week (Monday and Thursday); i.v.). Vehicle treated mice were administered with the vehicle for WEHI-7326. Docetaxel was resuspended at 2 mg/ml in PBS:Tween-80:ethanol = 90:5:5 (v/v/v). WEHI-7326 was resuspended at 2 mg/ml in saline.

MH792 LUSC PDX = assay: LUSC PDX model MH792; format: in vivo, NOD-SCID-IL2Rγc–/– mice; settings: MH792 PDX; WEHI-7326 20 mg/kg i.v. biweekly; docetaxel 10 mg/kg i.p. once
Experimental: (§3) LUSC PDXs were generated as described in[25]. PDXs at passage 4 were defrosted and washed with PBS before counting. 200,000 to 500,000 cells were then injected in a 50:50 PBS:Matrigel mix into the flanks of NOD-SCID-IL2Rγc–/– male mice. Tumors were measured twice weekly with calipers and treatment started when tumors were between 70–120 mm^3. Mice were assigned to treatment groups based on average tumor volume per group. Mice were culled when tumors reached a volume of 600 mm^3.

322 T TNBC PDX = assay: TNBC PDX model 322T; format: in vivo, NOD-SCID-IL2Rγc–/– mice; settings: 322 T PDX; docetaxel 10 mg/kg i.p. once; WEHI-7326 20 mg/kg i.v. biweekly
Experimental: as §1, §2

[1] = system: MDA-MB-231 LNA DRE (docetaxel resistant breast cancer) xenograft; assay: Orthotopic MDA-MB-231 LNA-DRE xenograft; format: in vivo, Balb/c nude mice; settings: docetaxel 10 mg/kg weekly i.v., WEHI-7326 30 mg/kg biweekly i.v.
Experimental: LoVo (4 × 10^6), PC3 (3 × 10^6) or MDA-MB-231 LNA DRE (10^6) cells were collected by trypsination and injected with 50 μl 1:1 PBS:Matrigel (v/v) subcutaneously on the right flank of 18 female (LoVo), 40 male (PC3) or into 4th mammary fat pad of 40 female (MDA231) Balb/c nude mice. Tumor growth was monitored and average tumor size at commencement of dosing was 100 mm^3. Mice were randomized into 3 arms of each 5 (LoVo), 10 (PC3) or 12 (MDA23) mice respectively and treatment with vehicle (saline), WEHI-7326 (biweekly) or docetaxel (weekly) was administered via tail vein injection. Tumor volumes were measured at least twice weekly with calipers and the experiments were terminated when tumors in the control group started exceeding 1500 mm^3. For LoVo, both vehicle and 25 mg/kg WEHI-7326 groups were harvested 24 h, but 20 mg/kg WEHI-7326 group harvested 1 h post final dose. For PC3, docetaxel group was not harvested in an attempt to grow out resistant tumors.

AH406 LUSC PDX = assay: LUSC PDX model AH406; format: in vivo, NOD-SCID-IL2Rγc–/– mice; settings: WEHI-7326 20 mg/kg i.v. biweekly, docetaxel 10 mg/kg i.p. once
Experimental: as §3

MDA-MB-231 = assay: Cell cycle analysis (G2/M arrest, PI staining, flow cytometry), MDA-MB-231; format: cell-based; settings: Homo sapiens; MDA-MB-231; overnight incubation, PI staining, flow cytometry; mean of 3 ± SEM; read-out: EC50 (G2/M arrest)
Experimental: Fig. 2 Antimitotic activity of WEHI-7326: cancer cell lines and effects on tubulin polymerization. a Dose-dependent antimitotic activity of WEHI-7326, nocodazol and taxol in tumor cell lines SW480 (colorectal) and MDA-MB-231 (breast). Data are presented as percentage of cells in G2/M after overnight incubation with increasing concentrations of inhibitors and PI staining followed by flow cytometry analysis. Mean average of 3 independent experiments ±SEM. b EC50 values (nM) for G2/M arrest on SW480 and MDA-MB-231 cell lines, given as mean average of 3 independent experiments ±SEM. c Western blot analysis of mitotic arrest in SW480 and MDA-MB-231 cells treated with EC50 concentrations of WEHI-7326 or Paclitaxel as marked by expression of phosho-S10 Histone H3 (p-HH3 S10), at different timepoints post treatment. Expression of β-actin provided as loading control. d Cell cycle analysis of LIM1899 cells 72 h post treatment with increasing concentrations of WEHI-7326 as measured by PI staining for DNA content followed by flow cytometry analysis. Sub-G1 represents apoptotic fractions and >4 N cell fractions of mitotic slippage. e Immunofluorescence confocal microscopy of tubulin polymerization in SW480 cells treated by various agents. […] Representative blot of 3 independent experiments. g Tubulin polymerization was assessed in vitro over time using a fluorescence-based tubulin polymerization assay (BK011P). […] Polymerization was measured by excitation at 360 nm and emission at 420 nm. […]
Cells in log growth were supplemented with fresh medium with either vehicle (control) or compound at the stated final concentrations. […] After 1 h incubation at room temperature in the dark, cells were analyzed on a FACScan (Becton and Dickinson) in CellQuest. The percentage of cells in each phase of the cell cycle was determined using ModFit software (Verity, http://www.vsh.com). Early and late apoptotic responses elicited by WEHI-7326 were assessed using Dead Cell Apoptosis Kit (ThermoFisher Scientific) with Annexin V FITC and PI following manufacturer’s instructions. […]

SW480 [2] = assay: Cell cycle analysis (G2/M arrest, PI staining, flow cytometry), SW480; format: cell-based, human; settings: SW480; for EC50: Homo sapiens, overnight incubation, PI staining, flow cytometry, mean of 3 ± SEM, read-out: EC50 (G2/M arrest)
Experimental: Fig. 2 Antimitotic activity of WEHI-7326: cancer cell lines and effects on tubulin polymerization. a Dose-dependent antimitotic activity of WEHI-7326, nocodazol and taxol in tumor cell lines SW480 (colorectal) and MDA-MB-231 (breast). Data are presented as percentage of cells in G2/M after overnight incubation with increasing concentrations of inhibitors and PI staining followed by flow cytometry analysis. Mean average of 3 independent experiments ±SEM. b EC50 values (nM) for G2/M arrest on SW480 and MDA-MB-231 cell lines, given as mean average of 3 independent experiments ±SEM. c Western blot analysis of mitotic arrest in SW480 and MDA-MB-231 cells treated with EC50 concentrations of WEHI-7326 or Paclitaxel as marked by expression of phosho-S10 Histone H3 (p-HH3 S10), at different timepoints post treatment. Expression of β-actin provided as loading control. d Cell cycle analysis of LIM1899 cells 72 h post treatment with increasing concentrations of WEHI-7326 as measured by PI staining for DNA content followed by flow cytometry analysis. Sub-G1 represents apoptotic fractions and >4 N cell fractions of mitotic slippage. e Immunofluorescence confocal microscopy of tubulin polymerization in SW480 cells treated by various agents. Cells were incubated for 24 h with control (0.1% DMSO), nocodazole (1 μM), paclitaxel (1 μM), myoseverin B (1 μM) or WEHI-7326 (1 μM). Cells were fixed and stained with β-tubulin antibody (green) and DAPI (DNA; blue) and phalloidin (actin, red). Shown are single confocal sections and enlarged areas (3x) to highlight changes in microtubule network; scale bar = 20 μm. Representative images from 2 independent experiments. f Cellular tubulin polymerization assay in cells: SW480 cells were incubated overnight with paclitaxel, myoseverin B or WEHI-7326, then processed to detect fractions of polymerized (P) and soluble (S) tubulin by western blot analysis. Representative blot of 3 independent experiments. g Tubulin polymerization was assessed in vitro over time using a fluorescence-based tubulin polymerization assay (BK011P). Tubulin was incubated with control (DMSO), paclitaxel (3 μM), nocodazole (15 μM) and WEHI-7326 at indicated concentrations (in DMSO). Polymerization was measured by excitation at 360 nm and emission at 420 nm. Representative graph of 3 independent experiments performed in duplicates. […]
Cells in log growth were supplemented with fresh medium with either vehicle (control) or compound at the stated final concentrations. […] After 1 h incubation at room temperature in the dark, cells were analyzed on a FACScan (Becton and Dickinson) in CellQuest. The percentage of cells in each phase of the cell cycle was determined using ModFit software (Verity, http://www.vsh.com). Early and late apoptotic responses elicited by WEHI-7326 were assessed using Dead Cell Apoptosis Kit (ThermoFisher Scientific) with Annexin V FITC and PI following manufacturer’s instructions. Cells were incubated 24 h with 6-point, 4-fold titration of WEHI-7326, washed twice with cold 1X PBS, resuspended in 1X Annexin Binding Buffer, incubated with FITC Annexin V and PI for 15 mins at RT in the dark and subsequently analyzed by flow cytometry.

SW480 [3] = assay: Cell growth inhibition assay, SW480; format: cell-based, human; settings: SW480 colon cancer cell line in vitro
Experimental: Cells were plated at a density of between 500 to 5000 cells per well for adherent cell lines depending on doubling time, and 15,000 cells per well for lymphoblastic leukemia cell lines, in a 96-well plate in 200 μl of growth media. Plates were incubated overnight at 37 °C before adding the inhibitors. Inhibitors were serially diluted from the stock solutions in complete medium and added to the cells. Incubation in the presence of inhibitors was continued for […]. Cell viability was assessed by the AlamarBlue (Invitrogen) or CellTiterBlue/Glo (Promega) method according to manufacturer’s instructions. The curve fits and IC50 values were generated in PRISM (GraphPad, San Diego, CA).
a Chemical structures of the triazine-based anti-mitotics used in this study. b Dose-dependent antiproliferative activity of key derivatives and comparison with commonly used anti-mitotics in SW480 cell line: Data shown is cell viability (as measured by CellTiterGlo) after 72 h relative to untreated control cells. Shown is mean of 3 independent experiments performed in duplicate +/- SEM. c Dose-dependent cell cycle analysis of key derivatives of WEHI-7326 development in SW480 cell line. Data are presented as percentage of cells in G2/M or subG0 after 24 h incubation with titration of inhibitors as assessed by PI staining and flow cytometry. Mean average of 3 experiments +/- SEM. d Comparison of IC50 and EC50 values of triazine compounds and anti-mitotic drugs in SW480 cell line: inhibition of cellular proliferation and cell cycle arrest in G2/M. IC50 and EC50 values are the mean of 3 independent experiments run in duplicates +/- SEM (n.d. = not determined). e HepG2 cytotoxic assay: cell viability assay after 48 h, normalised to 0.4% DMSO (100% viability) and 2 μM bortezomib (0% viability). The data is the mean average of 2 experiments +/- SD.

Compound: CC(=O)O[C@@]12CO[C@@H]1C[C@H](O)[C@@]1(C)C(=O)[C@H](O)C3=C(C)[C@@H](OC(=O)[C@H](O)[C@@H](NC(=O)OC(C)(C)C)c4ccccc4)C[C@@](O)([C@@H](OC(=O)c4ccccc4)[C@H]21)C3(C)C [docetaxel, reference compound]
Survival time (24 T TNBC PDX): 11 days
Median survival (MH792 LUSC PDX): 22 days
Survival time (322 T TNBC PDX): 7 days
Tumor growth inhibition (TGI) [1]: 70%
Median survival (AH406 LUSC PDX): 24 days

Compound: COC(=O)Nc1nc2ccc(C(=O)c3cccs3)cc2[nH]1 [Nocodazol, nocodazole, reference compound]
EC50 (MDA-MB-231): 37.2 ± 7.2 nM
EC50 (SW480 [2]): 57.4 ± 5.9 nM

EC50 (MDA-MB-231): 5.6 ± 3.1 nM
EC50 (SW480 [2]): 39.3 ± 4.1 nM
Compound: CC(=O)O[C@H]1C(=O)[C@@]2(C)[C@H]([C@H](OC(=O)c3ccccc3)[C@]3(O)C[C@H](OC(=O)[C@H](O)[C@@H](NC(=O)c4ccccc4)c4ccccc4)C(C)=C1C3(C)C)[C@]1(OC(C)=O)CO[C@@H]1C[C@@H]2O [Paclitaxel, paclitaxel, reference compound]

Compound: COc1ccc(CNc2nc(NCc3ccc(OC)cc3)nc(NN3CC(=O)NC3=O)n2)cc1 [compound 6]
Concentration inhibiting proliferation (SW480 [3]): at or below micromolar concentration
G2/M cell cycle arrest (SW480 [2]): strong G2/M cell cycle arrest
